PubChem BioAssay AID2060884 (Molecular Pharmacology Branch, DTP, NCI, 2025)

Test system: NCI-H929 complex spheroids, viability % test/control
Assay: Anticancer human tumor NCI-H929 cell line growth inhibition [RAS];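 note: compound exposure lasted seven days before viability was read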;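 for viability, T/C: 100% = DMSO vehicle control viability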
Conditions: for IC50: curve of first compound; for viability, T/C: stronger effect = lower value
Outline: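 Tumour cells grown as complex spheroids with HUVEC endothelial cells and mesenchymal stem cells, treated with RAS pathway inhibitor combinations. Each agent spans half-log steps from near clinical Cmax, or 10 microM where Cmax is unknown.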

SMILES: C[C@@H](NC(=O)c1ncnc(N)c1Cl)c1ncc(C(=O)Nc2cc(C(F)(F)F)c(Cl)cn2)s1 + CCn1c(-c2cccnc2C(C)OC)c2c3cc(ccc31)N1CCOC(CC(NC(=O)C(C(C)C)N(C)C(=O)C3(F)CCN(C(=O)C#CC(C)(C)N(C)C)CC3)C(=O)N3CCCC(N3)C(=O)OCC(C)(C)C2)C1
- IC50 (second compound 0.000949 µM): > 10 µM
- IC50 (second compound 0.003 µM): > 10 µM
- IC50 (second compound 0.00949 µM): > 10 µM
- IC50 (second compound 0.03 µM): > 10 µM
- IC50 (second compound 0.0949 µM): > 10 µM
- IC50 (second compound 0.3 µM): > 10 µM
- viability, T/C (second compound 0.000949 µM, first compound 0.0316 µM): 109%
- viability, T/C (second compound 0.000949 µM, first compound 0.1 µM): 101%
- viability, T/C (second compound 0.000949 µM, first compound 0.316 µM): 105%
- viability, T/C (second compound 0.000949 µM, first compound 1 µM): 94.4%
- viability, T/C (second compound 0.000949 µM, first compound 3.16 µM): 98.9%
- viability, T/C (second compound 0.000949 µM, first compound 10 µM): 103%
- viability, T/C (second compound 0.003 µM, first compound 0.0316 µM): 103%
- viability, T/C (second compound 0.003 µM, first compound 0.1 µM): 107%
- viability, T/C (second compound 0.003 µM, first compound 0.316 µM): 99.3%
- viability, T/C (second compound 0.003 µM, first compound 1 µM): 93.1%
- viability, T/C (second compound 0.003 µM, first compound 3.16 µM): 100%
- viability, T/C (second compound 0.003 µM, first compound 10 µM): 104%
- viability, T/C (second compound 0.00949 µM, first compound 0.0316 µM): 99.7%
- viability, T/C (second compound 0.00949 µM, first compound 0.1 µM): 102%
- viability, T/C (second compound 0.00949 µM, first compound 0.316 µM): 102%
- viability, T/C (second compound 0.00949 µM, first compound 1 µM): 92.3%
- viability, T/C (second compound 0.00949 µM, first compound 3.16 µM): 102%
- viability, T/C (second compound 0.00949 µM, first compound 10 µM): 104%
- viability, T/C (second compound 0.03 µM, first compound 0.0316 µM): 98.8%
- viability, T/C (second compound 0.03 µM, first compound 0.1 µM): 105%
- viability, T/C (second compound 0.03 µM, first compound 0.316 µM): 99.1%
- viability, T/C (second compound 0.03 µM, first compound 1 µM): 92.6%
- viability, T/C (second compound 0.03 µM, first compound 3.16 µM): 101%
- viability, T/C (second compound 0.03 µM, first compound 10 µM): 104%
- viability, T/C (second compound 0.0949 µM, first compound 0.0316 µM): 104%
- viability, T/C (second compound 0.0949 µM, first compound 0.1 µM): 101%
- viability, T/C (second compound 0.0949 µM, first compound 0.316 µM): 94.8%
- viability, T/C (second compound 0.0949 µM, first compound 1 µM): 92.3%
- viability, T/C (second compound 0.0949 µM, first compound 3.16 µM): 96.2%
- viability, T/C (second compound 0.0949 µM, first compound 10 µM): 105%
- viability, T/C (second compound 0.3 µM, first compound 0.0316 µM): 106%
- viability, T/C (second compound 0.3 µM, first compound 0.1 µM): 105%
- viability, T/C (second compound 0.3 µM, first compound 0.316 µM): 102%
- viability, T/C (second compound 0.3 µM, first compound 1 µM): 87.4%
- viability, T/C (second compound 0.3 µM, first compound 3.16 µM): 92.5%
- viability, T/C (second compound 0.3 µM, first compound 10 µM): 107%
